Results taken from PMC10098121, “Amphipathic barbiturates as marine product mimics with cytolytic and immunogenic effects on head and neck squamous cell carcinoma cell lines” (Frontiers in Pharmacology, 2023).
Like-named read-outs stand apart in the source and are kept apart here.

What was measured:
human red blood cells [1] = experiment: Hemolysis assay; assay type: cell-based; conditions: for EC50: Homo sapiens, Erythrocyte, 1 h, 37°C, highest concentration tested 500 μM, average of three experiments, read-out: EC50 hemolytic activity against human red blood cells
Description: The hemolytic effect of the MPMs was determined using a hemolysis assay as previously described ([Paulsen et al., 2021]). Briefly, hemolysis was determined using a heparinized fraction (10 IU/mL) of freshly drawn blood. The blood collected in ethylenediaminetetraacetic acid-containing test tubes (Vacutest, KIMA, Arzergrande, Italy) was used for the determination of the hematocrit (hct). The heparinized blood was washed 3 × with pre-warmed phosphate-buffered saline (PBS) and adjusted to a final hct of 4%. MPMs in DMSO (50 mM) were added to a 96-well polypropylene V-bottom plate (NUNC, Fisher Scientific, Oslo, Norway) and serially diluted. The test concentration range was 4–500 μM with DMSO contents ≤1%. A solution of 1% triton X-100 was used as a positive control for 100% hemolysis. As a negative control, a solution of 1% DMSO in PBS was included. Red blood cells (1% v/v final concentration) were added to the well plate and incubated at 37°C and 800 rpm for 1 h. After centrifugation (5 min, 3000 g), 100 μL from each well was transferred to a 96-well flat-bottomed microtiter plate, and absorbance was measured at 545 nm with a microplate reader (VersaMaxTM, Molecular Devices, Sunnyvale, CA, United States). The percentage of hemolysis was calculated as the ratio of the absorbance in the MPM treated and surfactant-treated samples, corrected for the PBS background. Three independent experiments were performed, and EC50 values are presented as averages.

HSC-3 = experiment: High throughput drug screening (CellTiter-Glo, DSS); assay type: cell-based, human; conditions: for drug sensitivity score (DSS): HSC-3, 72 h, 10-100,000 nM, myogel, non-irradiated; for delta DSS (ΔDSS): HSC-3, DSS irradiated (2 Gy) minus DSS non-irradiated, >5 synergy, <–5 antagonism
Description: (§1) The MPMs were screened against a panel of […] different cell lines (HSC-3, UT-SCC-8, UT-SCC-24A, UT-SCC-24B, UT-SCC-42A, UT-SCC-42B and NOF) at the High Throughput Biomedicine Unit (HTB) at the Institute for Molecular Medicine Finland (FIMM). On day 1, black-walled 384-well plates were coated with 5 µl diluted myogel (0.5 mg/ml) per well using an automated reagent dispenser (MultiFlo FX, BioTek, Winooski, VT, United States). On day 2, 500 cells per well were seeded in 20 µl of complete media using the MultiFlo FX (BioTek), and the cells were left to adhere overnight. On day 3, the MPMs, cisplatin, DMSO and Benzethonium chloride were added to the cells using an automatic liquid handler (Echo 550, Labcyte Inc., San Jose, CA, United States). Cisplatin and the MPMs were added to yield five different concentrations in a ten-fold dilution series ranging from 10 to 100,000 nM. Each concentration was tested in triplicate wells. DMSO (0.1%) and benzethonium chloride (100 µM) served as negative and positive control, respectively. Three hours later, some of the plates were irradiated with 2 Gy in a gamma irradiator (OB29/4, STS, Braunschweig, Germany). All plates were taken to the irradiation room to ensure similar handling of the plates. 72 h later, the plates were cooled to room temperature before 25 µl of CellTiter-Glo 2.0 reagent (Promega, Madison, WI, USA) was added to each well using the MultiFlo FX (BioTek). Next, the plates were centrifuged for 5 min at 1,000 rpm before the luminescence signal was measured with the PHERAstar FS HT reader (BMG LABTECH GmbH, Ortenberg, Germany). The raw data was analyzed with the Breeze software (https://breeze.fmm.fi), which normalized the luminescence signal from treated cells against the signal from negative and positive control cells to calculate the percentage of inhibition and generate dose-response curves, which were then used to calculate drug sensitivity scores (DSS). The DSS is a parameter which combines the IC50, the slope of the dose-response curve, and the minimum and maximum responses into a single metric, as previously described ([Yadav et al., 2014]). Quality control was performed by calculation of the Z′-factor, which was >0.7 for all cell lines, indicating high quality of the assay ([Zhang et al., 1999]).

[2] = tested on: NOF (normal oral fibroblasts); experiment: as above; assay type: cell-based, human; conditions: for drug sensitivity score (DSS): 72 h, 10-100,000 nM, myogel, non-irradiated; for delta DSS (ΔDSS): DSS irradiated (2 Gy) minus DSS non-irradiated, >5 synergy, <–5 antagonism
Description: as §1

UT-SCC-106A = experiment: as above; assay type: cell-based, human; conditions: for drug sensitivity score (DSS): 72 h, 10-100,000 nM, myogel, non-irradiated; for delta DSS (ΔDSS): DSS irradiated (2 Gy) minus DSS non-irradiated, >5 synergy, <–5 antagonism
Description: as §1

UT-SCC-24A = experiment: as above; assay type: cell-based, human; conditions: for drug sensitivity score (DSS): 72 h, 10-100,000 nM, myogel, non-irradiated; for delta DSS (ΔDSS): DSS irradiated (2 Gy) minus DSS non-irradiated, >5 synergy, <–5 antagonism
Description: as §1

UT-SCC-24B = experiment: as above; assay type: cell-based, human; conditions: for drug sensitivity score (DSS): 72 h, 10-100,000 nM, myogel, non-irradiated; for delta DSS (ΔDSS): DSS irradiated (2 Gy) minus DSS non-irradiated, >5 synergy, <–5 antagonism
Description: as §1

UT-SCC-42A = experiment: as above; assay type: cell-based, human; conditions: for drug sensitivity score (DSS): 72 h, 10-100,000 nM, myogel, non-irradiated; for delta DSS (ΔDSS): DSS irradiated (2 Gy) minus DSS non-irradiated, >5 synergy, <–5 antagonism
Description: as §1

UT-SCC-42B = experiment: as above; assay type: cell-based, human; conditions: for drug sensitivity score (DSS): 72 h, 10-100,000 nM, myogel, non-irradiated; for delta DSS (ΔDSS): DSS irradiated (2 Gy) minus DSS non-irradiated, >5 synergy, <–5 antagonism
Description: as §1

UT-SCC-8 = experiment: as above; assay type: cell-based, human; conditions: for drug sensitivity score (DSS): UT-SCC-8, 72 h, 10-100,000 nM, myogel, non-irradiated; for delta DSS (ΔDSS): UT-SCC-8, DSS irradiated (2 Gy) minus DSS non-irradiated, >5 synergy, <–5 antagonism
Description: as §1

Bacillus subtilis 168 = experiment: Bacterial minimum inhibitory concentration (broth microdilution); assay type: cell-based; conditions: Bacillus subtilis 168, 48 h, 35 °C, di-TFA salts
Description: (§2) Method for determination of bacterial minimum inhibitory concentration (MIC) Stock solutions of the water-soluble compounds were prepared by dissolving them in ultrapure water (Milli-Q H2O, Millipore, MA, USA). The less water-soluble compounds were first dissolved in 25 - 50 µL 100% DMSO before further dilution with ultrapure water. The DMSO concentration was always less than 1% in the working concentration of each compound. A modified broth microdilution susceptibility test based on the CLSI M07-A9 protocol, [2] was used to determine minimal inhibitory concentrations (MIC). Briefly, the test compounds were two-fold diluted with ultrapure water in polystyrene 96-well flat-bottom microplates (NUNC, Roskilde, Denmark). The bacterial inoculum was diluted to 2.5 - 3 x 10^4 cells/mL in Mueller-Hinton broth (MHB, Difco Laboratories, USA) and added to the different diluted compounds in a ratio of 1:1. Positive control (ciprofloxacin, Sigma-Aldrich, USA), negative control (bacteria + water), and media control (media + water) were included in each experiment. The microplates were incubated for 48 h at 35 °C in an EnVision microplate reader (PerkinElmer, Waltham, MA, USA). The lowest concentration of compounds that caused no bacterial growth, as determined by optical density (OD600) measurements, was defined as the MIC value. All compounds were tested in 3 technical replicates.
(§3) Supplementary Video S1. HSC-3 cells were seeded at 100% confluence and a standard scratch wound migration assay was performed. The cells were imaged every 2 hours for 24 hours. The video

[3] = tested on: Escherichia coli ATCC 25922; experiment: as above; assay type: cell-based; conditions: ATCC25922; Escherichia coli ATCC 25922, 48 h, 35 °C, di-TFA salts
Description: as §2, §3

[4] = tested on: Pseudomonas aeruginosa ATCC 27853; experiment: as above; assay type: cell-based; conditions: ATCC27853; Pseudomonas aeruginosa ATCC 27853, 48 h, 35 °C, di-TFA salts
Description: as §2, §3

[5] = tested on: Staphylococcus aureus ATCC 9144; experiment: as above; assay type: cell-based; conditions: ATCC9144; Staphylococcus aureus ATCC 9144, 48 h, 35 °C, di-TFA salts
Description: as §2, §3

[6] = tested on: seven HNSCC cell lines and one normal oral fibroblast cell line (NOF); experiment: High throughput drug screening, statements on the whole panel; assay type: cell-based, human; conditions: DSS
Description: as §1

human red blood cells [7] = tested on: human red blood cells; set-up: method as in von Hofsten et al., 2022; conditions: highest concentration 500 μM; ref von Hofsten et al., 2022; read-out: EC50 hemolytic activity against human red blood cells; cited from earlier work

| SMILES | EC50 (human red blood cells [1]) [µM] | drug sensitivity score (DSS) (HSC-3) | delta DSS (ΔDSS) (HSC-3) | drug sensitivity score (DSS) [2] | delta DSS (ΔDSS) [2] | drug sensitivity score (DSS) (UT-SCC-106A) | delta DSS (ΔDSS) (UT-SCC-106A) | drug sensitivity score (DSS) (UT-SCC-24A) | delta DSS (ΔDSS) (UT-SCC-24A) | drug sensitivity score (DSS) (UT-SCC-24B) | delta DSS (ΔDSS) (UT-SCC-24B) | drug sensitivity score (DSS) (UT-SCC-42A) | delta DSS (ΔDSS) (UT-SCC-42A) | drug sensitivity score (DSS) (UT-SCC-42B) | delta DSS (ΔDSS) (UT-SCC-42B) | drug sensitivity score (DSS) (UT-SCC-8) | delta DSS (ΔDSS) (UT-SCC-8) | MIC (Bacillus subtilis 168) [µg/mL] | MIC [3] [µg/mL] | MIC [4] [µg/mL] | further results |
| --- | --- | --- | --- | --- | --- | --- | --- | --- | --- | --- | --- | --- | --- | --- | --- | --- | --- | --- | --- | --- | --- |
| NCCCCCN1C(=O)N(CCCCCN)C(=O)C(CCCc2ccccc2)(CCCc2ccccc2)C1=O [MPM-5:0] | 313 | 17,6 | 0,2 | 19 | -1,2 | 17,9 | -1 | 17,4 | -1,2 | 18,2 | -0,5 | 13,5 | -0,8 | 11,5 | -0,5 | 18,1 | 0,4 | 4 | 32 | 32 | hemolytic activity against red blood cells (in words) (human red blood cells [1]; test range 4–500 μM): the second lowest RBC EC50; MIC [5]: 8 µg/mL |
| CN(C)CCN1C(=O)N(CCN(C)C)C(=O)C(CCCc2ccccc2)(CCCc2ccccc2)C1=O [MPM-2:2] | > 500 | 16,8 | 1,4 | 19,2 | -1,2 | 18,6 | -1,5 | 18,1 | -0,4 | 17,8 | -1,5 | 13,4 | 0,9 | 12,9 | -0,4 | 17 | 0,2 | 32 | 32 | > 64 | MIC [5]: > 64 µg/mL |
| NCCCN1C(=O)N(CCCN)C(=O)C(CCCc2ccccc2)(CCCc2ccccc2)C1=O [MPM-3:0] | > 500 | 16,1 | 0 | 18,3 | -0,6 | 17,1 | -0,6 | 14,3 | -1,8 | 18 | -0,6 | 11,7 | -1,1 | 10,1 | -0,1 | 16,5 | -0,6 | 16 | 64 | 64 | MIC [5]: 32 µg/mL |
| CNCCCCN1C(=O)N(CCCCNC)C(=O)C(CCCc2ccccc2)(CCCc2ccccc2)C1=O [MPM-4:1] | > 500 | 14,8 | -0,4 | 18,5 | -0,8 | 15,8 | -0,8 | 15,5 | -1,6 | 16,4 | -0,5 | 9,9 | -0,1 | 10,2 | -1,1 | 14,5 | 0,6 | 8 | > 64 | > 64 | MIC [5]: 32 µg/mL |
| C[N+](C)(C)CCCCN1C(=O)N(CCCC[N+](C)(C)C)C(=O)C(CCCc2ccccc2)(CCCc2ccccc2)C1=O [MPM-4:3] | > 500 | 0 | 0 | 2,2 | -1,4 | 0,5 | -0,5 | 0 | 0 | 0 | 0,1 | 0,1 | 0 | 0,1 | -0,1 | 0 | 0 | > 64 | 64 | > 64 | MIC [5]: 64 µg/mL; potency / effect on viability over the cell line panel (in words) ([6]; 72 h): completely inactive |
| NCCCCN1C(=O)N(CCCCN)C(=O)C(CCCc2ccccc2)(CCCc2ccccc2)C1=O [MPM-1] | – | 8,8 | 0 | 17,1 | 0,4 | 10,3 | 0,3 | 6,9 | -1,1 | 9,7 | 0,5 | 8,4 | -0,8 | 7,4 | 0,6 | 10 | -0,8 | – | – | – | selectivity for cancer cell lines over NOFs (in words) ([6]; cancer lines and NOFs cultured in different media): slight tendency towards selectivity for the NOFs, which was especially prominent for MPM-1; EC50 (human red blood cells [7]): > 500 µM |
